Assay results taken from BindingDB's records for doi:10.1016/s0960-894x(01)00002-6 (Kyushu University, 2001).

Biological target: DNA polymerase I (Escherichia coli) (UniProt P00582)
Assay: Compound was evaluated for its inhibitory activity against Klenow enzyme

Chain of DNA polymerase I (Escherichia coli) (P00582 whole entry, looked up): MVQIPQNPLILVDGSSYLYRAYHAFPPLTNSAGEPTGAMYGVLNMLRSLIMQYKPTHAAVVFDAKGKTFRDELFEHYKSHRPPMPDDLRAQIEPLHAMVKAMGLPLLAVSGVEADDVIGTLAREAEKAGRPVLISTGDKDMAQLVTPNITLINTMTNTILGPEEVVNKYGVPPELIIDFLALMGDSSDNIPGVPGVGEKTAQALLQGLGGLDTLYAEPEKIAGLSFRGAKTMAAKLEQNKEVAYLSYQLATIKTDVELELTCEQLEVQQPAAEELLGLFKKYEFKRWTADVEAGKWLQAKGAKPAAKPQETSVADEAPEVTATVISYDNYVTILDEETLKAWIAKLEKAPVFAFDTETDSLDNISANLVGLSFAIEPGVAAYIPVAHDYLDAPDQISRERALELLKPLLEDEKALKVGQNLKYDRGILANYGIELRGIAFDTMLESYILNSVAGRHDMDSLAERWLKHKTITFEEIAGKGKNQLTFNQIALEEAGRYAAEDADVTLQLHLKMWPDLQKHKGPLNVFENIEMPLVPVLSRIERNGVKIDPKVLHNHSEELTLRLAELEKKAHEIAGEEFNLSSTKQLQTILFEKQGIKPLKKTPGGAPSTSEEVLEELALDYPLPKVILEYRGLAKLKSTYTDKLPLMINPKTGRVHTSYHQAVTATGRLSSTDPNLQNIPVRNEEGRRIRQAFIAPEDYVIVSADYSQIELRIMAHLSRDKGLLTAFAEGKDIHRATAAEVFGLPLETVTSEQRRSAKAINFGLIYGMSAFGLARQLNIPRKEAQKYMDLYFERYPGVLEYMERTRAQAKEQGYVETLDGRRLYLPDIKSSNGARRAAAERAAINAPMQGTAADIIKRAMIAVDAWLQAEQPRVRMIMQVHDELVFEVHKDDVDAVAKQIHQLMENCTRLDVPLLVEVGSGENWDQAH

Question: For O=C(Cc1cn(CCn2ccc3cc(Cl)ccc32)c2ccccc12)NCCCCCCCCCCCCOP(=O)(O)Oc1cccc(Cl)c1 [Phosphoric acid 12-(2-{1-[2-(5-chloro-indol-1-yl)-ethyl]-1H-indol-3-yl}-acetylamino)-dodecyl ester 3-chloro-phenyl ester; compound with triethyl-amine], which IC50 is on record?
Answer: The IC50 was 70 µM.

Question: With O=C(Cc1cn(CCn2ccc3cc(Cl)ccc32)c2ccccc12)NCCCCCCCCCCCCOP(=O)(O)OC1CCCCC1 [Phosphoric acid 12-(2-{1-[2-(5-chloro-indol-1-yl)-ethyl]-1H-indol-3-yl}-acetylamino)-dodecyl ester cyclohexyl ester; compound with triethyl-amine] as the compound, how does the IC50 read?
Answer: Its IC50 is 101 µM.

Question: For O=C(Cc1cn(CCn2ccc3cc(Cl)ccc32)c2ccccc12)NCCCCCCCCCCCCOP(=O)(O)Oc1ccccc1 [Phosphoric acid 12-(2-{1-[2-(5-chloro-indol-1-yl)-ethyl]-1H-indol-3-yl}-acetylamino)-dodecyl ester phenyl ester; compound with triethyl-amine], which IC50 is on record?
Answer: Its IC50 is 61 µM.
